From patent US20240374573A1, “IMIDAZOLE CONTAINING COMPOUNDS, DERIVATIVES THEREFORE, AND USES THEREOF” (AglaeaPharma Inc., priority 2023, published 2024) come the findings set out here.

Structures are written as SMILES. Bounds are passed on as bounds.

The first test deals with T1, α2AAR (Homo sapiens, UniProt P08913).
T1 construct: host or cells: HEK293 (membranes)
T1 sequence (P08913 1-465): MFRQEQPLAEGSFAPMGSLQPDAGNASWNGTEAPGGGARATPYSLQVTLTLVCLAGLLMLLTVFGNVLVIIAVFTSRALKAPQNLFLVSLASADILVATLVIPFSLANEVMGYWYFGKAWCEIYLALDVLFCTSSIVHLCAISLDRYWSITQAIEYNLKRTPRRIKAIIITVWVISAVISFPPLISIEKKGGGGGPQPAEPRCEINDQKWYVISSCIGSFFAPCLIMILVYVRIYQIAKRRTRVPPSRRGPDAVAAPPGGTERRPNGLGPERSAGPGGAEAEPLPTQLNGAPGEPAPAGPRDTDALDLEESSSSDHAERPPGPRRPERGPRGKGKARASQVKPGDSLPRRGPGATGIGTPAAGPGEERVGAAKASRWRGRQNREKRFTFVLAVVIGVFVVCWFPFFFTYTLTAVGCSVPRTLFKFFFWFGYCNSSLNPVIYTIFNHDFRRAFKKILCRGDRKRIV
The test is described as follows: α2AAR binding assay ([3H]-RX 821002 radioligand). Conditions: [3H]-RX 821002 0.5 nM, HEK293 membranes; read-out: α2A affinity (Ki). As for the experimental part: The α2AR Binding Assay was conducted using a stable HEK293 cell line, specifically constructed by WuXi AppTec for targeting α2AAR. […] Both the assay and wash buffers consist of 50 mM Tris-HCl at a pH of 7.4 (Tris base, Sigma, T1503-1 KG).
The procedure initiated with the preparation of test compounds and a reference compound, yohimbine (Sigma, Y3125), through an 8-point 4-fold serial dilution, transferring 1 μL of each to the assay plate. […] After scaling, the plates were agitated at room temperature for one hour. Subsequently, the Unifilter-96 GF/C filter plates were pre-soaked with 0.3% PEI (Sigma, P3143) for at least half an hour. The reaction mixtures were then filtered and washed four times with cold wash buffer using a Perkin Elmer Cell harvester. Post-filtration, the plates were dried at 50° C. for one hour. […] The top of the plates was then sealed with TopSeal-A sealing film. The trapped 3H was quantified using a Perkin Elmer MicroBeta2 Reader. […] Finally, the data were analyzed with Prism 5.0 software, employing the “log (inhibitor) vs. response-Variable slope” model for data fitting. This comprehensive process ensured precise assessment of the binding affinity of compounds to the α2AAR.
One may read the Ki as the equilibrium dissociation constant of an inhibitor or competing ligand from its target. Turning to `Cc1cccc(C(c2cccc(NC(=O)CCC#N)c2)c2c[nH]cn2)c1C` (single isomer, unassigned) [43-A], the inhibition constant Ki was over 1000 nM.
Same read-out and setting: to `Cc1cccc(C(c2c[nH]cn2)c2cccc(C(N)=O)c2F)c1C` (single isomer, unassigned) [45-A] belongs over 1000 nM; to `Cc1cccc(C(c2cccc(OCCNS(C)(=O)=O)c2)c2c[nH]cn2)c1C` (single isomer, unassigned) [46-A], over 1000 nM; to `Cc1cccc(C(c2cccc(C(=O)NCC3CCOCC3)c2)c2c[nH]cn2)c1C` (single isomer, unassigned) [98-A], 250 to 1000 nM.
Same read-out and setting: then `Cc1cccc(C(Cc2cccc(NS(=O)(=O)CC3CCOCC3)c2)c2c[nH]cn2)c1C` (single isomer, unassigned) [112-A], with 250 to 1000 nM.
Regarding `Cc1cccc(C(c2c[nH]cn2)c2cccc(C(=O)NCC3CCOCC3)c2F)c1C` (single isomer, unassigned) [124-A], the Ki was 250 to 1000 nM.
Regarding `Cc1cccc(C(Cc2ccc(C(N)=O)c(F)c2)c2c[nH]cn2)c1C` (single isomer, unassigned) [156-A], the Ki was over 1000 nM.
On the same count and under the same terms, then `Cc1cccc(C(Cc2ccc(C(=O)O)cc2)c2c[nH]cn2)c1C` (single isomer, unassigned) [175-A], with over 1000 nM; and `Cc1cccc(C(OCCOCCNS(C)(=O)=O)c2c[nH]cn2)c1C` (stereo not shown) [compound 40], with over 1000 nM; and `Cc1cccc(C(c2c[nH]cn2)c2cccc(NC(=O)CC#N)c2F)c1C` (stereo not shown) [compound 41], with 50 to 250 nM.
`Cc1cccc(C(c2cccc(NC(=O)CCC(N)=O)c2)c2c[nH]cn2)c1C` (stereo not shown) [compound 42]: the Ki is 50 to 250 nM.
As to `Cc1cccc(C(c2cccc(OCCC#N)c2)c2c[nH]cn2)c1C` (stereo not shown) [compound 48], the inhibition constant (Ki) was over 1000 nM.
On the same count and under the same terms, then `CONC(=O)c1cccc(C(c2ccccc2)c2c[nH]cn2)c1` (stereo not shown) [compound 49], with over 1000 nM; and `CONC(=O)c1cc(C(c2c[nH]cn2)c2cccc(C)c2C)ccc1F` (stereo not shown) [compound 53], with 250 to 1000 nM.
Still for that read-out and setting: to `Cc1cccc(C(c2ccnc(NS(C)(=O)=O)c2)c2c[nH]cn2)c1C` (stereo not shown) [compound 57] belongs 250 to 1000 nM.
The same measure, in the same setting: to `Cc1cccc(C(c2c[nH]cn2)c2ccnc(C(N)=O)c2F)c1C` (stereo not shown) [compound 58] belongs 50 to 250 nM; to `Cc1cccc(C(c2c[nH]cn2)C2CCCC(C(=O)O)C2)c1C` (stereo not shown) [compound 60], 250 to 1000 nM; to `COC(=O)Nc1cccc(C(c2c[nH]cn2)c2cccc(C)c2C)c1` (stereo not shown) [compound 62], 50 to 250 nM.
As to `CC(=O)NCc1cccc(C(c2c[nH]cn2)c2cccc(C)c2C)c1` (stereo not shown) [compound 65], the Ki was 50 to 250 nM.
Same read-out and setting: then `Cc1cccc(C(c2cccc(C#N)c2)c2c[nH]cn2)c1C` (stereo not shown) [compound 68], with 50 to 250 nM; and `Cc1cccc(C(c2cccc(CNS(C)(=O)=O)c2)c2c[nH]cn2)c1C` (stereo not shown) [compound 69], with 50 to 250 nM; and `Cc1cccc(C(c2cccc(N(C)S(C)(=O)=O)c2)c2c[nH]cn2)c1C` (stereo not shown) [compound 71], with 10 to 50 nM.
As for `Cc1c(F)cccc1C(c1cccc(NS(C)(=O)=O)c1)c1c[nH]cn1` (stereo not shown) [compound 75], the inhibition constant (Ki) lay within 50 to 250 nM.
The same measure, in the same setting: then `Cc1cccc(C(c2cccc(NS(=O)(=O)C(F)(F)F)c2)c2c[nH]cn2)c1C` (stereo not shown) [compound 77], with 250 to 1000 nM; and `CS(=O)(=O)Nc1cccc(C(c2c[nH]cn2)c2c(F)cccc2Cl)c1` (stereo not shown) [compound 78], with 250 to 1000 nM.
Consider `Cc1cccc(C(c2cccc(NC(=O)CCN3CCN(C)CC3)c2)c2c[nH]cn2)c1C` (stereo not shown) [compound 82], for which the inhibitory constant (Ki) is over 1000 nM.
Still for that read-out and setting: to `Cc1cccc(C(c2cccc(NCCNS(C)(=O)=O)c2)c2c[nH]cn2)c1C` (stereo not shown) [compound 83] belongs 50 to 250 nM.
Consider `Cc1cccc(C(c2cccc(NC(=O)c3cn[nH]c3)c2)c2c[nH]cn2)c1C` (stereo not shown) [compound 87], for which the Ki was in the range of 50 to 250 nM.
On the same count and under the same terms, to `Cc1cccc(C(c2cccc(C(=O)NOCCN3CCOCC3)c2)c2c[nH]cn2)c1C` (stereo not shown) [compound 91] belongs 50 to 250 nM.
On the same count and under the same terms, to `Cc1cccc(C(c2c[nH]cn2)C2CCCC(C(N)=O)C2)c1C` (stereo not shown) [compound 92] belongs over 1000 nM; to `Cc1cccc(C(CCOCCOCCNS(C)(=O)=O)c2c[nH]cn2)c1C` (stereo not shown) [compound 93], 250 to 1000 nM.
With `Cc1cccc(C(c2c[nH]cn2)N2CCc3ccc(NS(C)(=O)=O)cc32)c1C` (stereo not shown) [compound 106], the Ki lay in the range of 50 to 250 nM.
On the same count and under the same terms, then `Cc1cccc(C(c2cccc(NC(=O)CN3CCNCC3)c2)c2c[nH]cn2)c1C` (stereo not shown) [compound 107], with 50 to 250 nM.
Same read-out and setting: to `Cc1cccc(C(c2cccc(NC(=O)CN(C)C)c2)c2c[nH]cn2)c1C` (stereo not shown) [compound 110] belongs 50 to 250 nM; to `Cc1c(F)cccc1C(c1cccc(NC(=O)CC2CCOCC2)c1)c1c[nH]cn1` (stereo not shown) [compound 113], 50 to 250 nM.
Still for that read-out and setting: to `Cc1cccc(C(c2cccc(CN3CCCCC3)c2)c2c[nH]cn2)c1C` (stereo not shown) [compound 114] belongs over 1000 nM.
In the case of `Cc1c(CO)cccc1C(c1cccc(NS(C)(=O)=O)c1)c1c[nH]cn1` (stereo not shown) [compound 115], the Ki was in the range of 250 to 1000 nM.
Still for that read-out and setting: then `Cc1cccc(C(c2cccc(COCCNS(C)(=O)=O)c2)c2c[nH]cn2)c1C` (stereo not shown) [compound 116], with 10 to 50 nM; and `Cc1cccc(C(c2cccc(CCN3CCC(O)CC3)c2)c2c[nH]cn2)c1C` (stereo not shown) [compound 125], with 10 to 50 nM.
On the same count and under the same terms, then `CNS(=O)(=O)Nc1cccc(C(c2c[nH]cn2)c2cccc(C)c2C)c1` (stereo not shown) [compound 127], with 10 to 50 nM.
Same read-out and setting: to `CNC(=O)Nc1cccc(C(c2c[nH]cn2)c2cccc(C)c2C)c1` (stereo not shown) [compound 128] belongs 50 to 250 nM; to `C=CC(=O)Nc1cccc(C(c2c[nH]cn2)c2cccc(C)c2C)c1` (stereo not shown) [compound 129], 50 to 250 nM.
In the case of `Cc1csc(CCS(=O)(=O)Nc2cccc(C(c3c[nH]cn3)c3cccc(C)c3C)c2)n1` (stereo not shown) [compound 131], the Ki fell in the range of 10 to 50 nM.
As for `COc1ccccc1C(c1cccc(NC(=O)CC2CCOCC2)c1)c1c[nH]cn1` (stereo not shown) [compound 132], the Ki lay within 50 to 250 nM.
Same read-out and setting: to `COc1ccccc1C(c1cccc(NS(C)(=O)=O)c1)c1c[nH]cn1` (stereo not shown) [compound 135] belongs 50 to 250 nM; to `CCc1ccccc1C(c1cccc(NS(C)(=O)=O)c1)c1c[nH]cn1` (stereo not shown) [compound 140], 50 to 250 nM.
In the case of `Cc1cccc(C(Cc2cccc(NS(=O)(=O)CC3CCOCC3)c2)c2c[nH]cn2)c1C` (stereo not shown) [compound 142], the inhibition constant Ki was under 10 nM.
Regarding `Cc1cccc(C(c2cccc(NC(=O)CC[N+](C)(C)C)c2)c2c[nH]cn2)c1C` (stereo not shown) [compound 144], the Ki lay in the range of 50 to 250 nM.
The same measure, in the same setting: then `CONC(=O)c1cc(C(c2c[nH]cn2)c2cccc(C)c2C)cs1` (stereo not shown) [compound 182], with 50 to 250 nM; and `Cc1cccc(C(CCc2ccccc2NS(C)(=O)=O)c2c[nH]cn2)c1C` (stereo not shown) [compound 183], with 250 to 1000 nM.
`Cc1cccc(C(CC23CC4CC(C2)CC(C(N)=O)(C4)C3)c2c[nH]cn2)c1C` (stereo not shown) [compound 188]: the Ki was over 1000 nM.

Still in this test, the particulars now being: α2A affinity (Ki, nM).
Turning to `Cc1cccc(C(c2cnc[nH]2)C2CCc3ccc(O)cc32)c1C` (single isomer, unassigned) [100-A], the inhibitory constant (Ki) was under 10 nM.
On the same count and under the same terms, then `Cc1cccc(C(c2cnc[nH]2)C2CCc3ccc(O)cc32)c1C` (single isomer, unassigned) [100-B], with 50 to 250 nM.
Still for that read-out and setting: then `Cc1cccc(C(COCCNS(C)(=O)=O)c2c[nH]cn2)c1C` (stereo not shown) [compound 66], with 250 to 1000 nM; and `Cc1cccc(C(CCCNS(C)(=O)=O)c2c[nH]cn2)c1C` (stereo not shown) [compound 184], with 250 to 1000 nM.
